Test system: BaF3 V617F cells; UKE-1
Assay: Proliferation Assay (Cell Titer-Glo; Example 7)
Assay type: cell-based
Details: proliferation 72 hours, inhibit JAK2 activity, cell line (BaF3 V617F or UKE-1) not stated
Procedure, shortened: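 BaF3 V617F cells (RPMI, 10% FBS) and UKE-1 cells (Iscove's DMEM, 10% FBS, 10% equine serum, 1 uM hydrocortisone) were exposed to 3-fold serially diluted compound in duplicate for 72 hours at 37 °C. Viable cell number quantified by Cell Titer-Glo luminescence; IC50 reported.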

Row | SMILES | IC50 [µM]
1 | Cc1cc(Nc2ncc(C(F)(F)F)c(Nc3ccc(CNS(=O)(=O)C4CC4)cc3)n2)ccc1N1CCN(C)CC1 [II-128, N4-[4-(N-Cyclopropylsulfonylamino)methylphenyl]-N2-[3-methyl-4-(4-methyl-1-piperazinyl)phenyl]-5-trifluoromethyl-2,4-pyrimidinediamine] | 0.755
2 | CCNS(=O)(=O)NCc1cccc(Nc2nc(Nc3cc(C)c(OC)c(C)c3)ncc2Cl)c1 [II-129, 5-Chloro-N2-(3,5-dimethyl-4-methoxyphenyl)-N4-[(3-(ethylamino)sulfonylamino)methylphenyl]-2,4-pyrimidinediamine] | 0.127
3 | CCNS(=O)(=O)NCc1cccc(Nc2nc(Nc3cc(C)c(OCC)c(C)c3)ncc2Cl)c1 [II-130, 5-Chloro-N2-(3,5-dimethyl-4-ethoxyphenyl)-N4-[(3-(ethylamino)sulfonylamino)methylphenyl]-2,4-pyrimidinediamine] | 0.14
4 | CCNS(=O)(=O)NCc1cccc(Nc2nc(Nc3ccc(N4CCN(C)CC4)cc3)ncc2Cl)c1 [II-131, 5-Chloro-N4-[(3-(ethylamino)sulfonylamino)methylphenyl]-N2-[4-(4-methyl-1-piperazinyl)phenyl]-2,4-pyrimidinediamine] | 0.151
5 | CCNS(=O)(=O)NCc1cccc(Nc2nc(Nc3ccc(N4CCN(C)CC4)c(C)c3)ncc2Cl)c1 [II-132, 5-Chloro-N4-[(3-(ethylamino)sulfonylamino)methylphenyl]-N2-[3-methyl-4-(4-methyl-1-piperazinyl)phenyl]-2,4-pyrimidinediamine] | 1.63
6 | CCNS(=O)(=O)NCc1cccc(Nc2nc(Nc3cc(C)c(OC)c(C)c3)ncc2C)c1 [II-133, N2-(3,5-Dimethyl-4-methoxyphenyl)-N4-[(3-(ethylamino)sulfonylamino)methylphenyl]-5-methyl-2,4-pyrimidinediamine] | 0.209
7 | CCNS(=O)(=O)NCc1cccc(Nc2nc(Nc3cc(C)c(OCC)c(C)c3)ncc2C)c1 [II-134, N2-(3,5-Dimethyl-4-ethoxyphenyl)-N4-[(3-(ethylamino)sulfonylamino)methylphenyl]-5-methyl-2,4-pyrimidinediamine] | 0.231
8 | CCNS(=O)(=O)NCc1cccc(Nc2nc(Nc3ccc(N4CCN(C)CC4)cc3)ncc2C)c1 [II-135, N4-[(3-(Ethylamino)sulfonylamino)methylphenyl]-5-methyl-N2-[4-(4-methyl-1-piperazinyl)phenyl]-2,4-pyrimidinediamine] | 0.267
9 | CCNS(=O)(=O)NCc1cccc(Nc2nc(Nc3ccc(N4CCN(C)CC4)c(C)c3)ncc2C)c1 [II-136, N4-[3-((Ethylamino)sulfonylamino)methylphenyl]-5-methyl-N2-[3-methyl-4-(4-methyl-1-piperazinyl)phenyl]-2,4-pyrimidinediamine] | 2.14
10 | CCNS(=O)(=O)NCc1cccc(Nc2nc(Nc3cc(C)c(OC)c(C)c3)ncc2F)c1 [II-137, N2-(3,5-Dimethyl-4-methoxyphenyl)-N4-[(3-(ethylamino)sulfonylamino)methylphenyl]-5-fluoro-2,4-pyrimidinediamine] | 0.541
11 | CCNS(=O)(=O)NCc1cccc(Nc2nc(Nc3ccc(N4CCN(C)CC4)cc3)ncc2F)c1 [II-138, N4-[3-((Ethylamino)sulfonylamino)methylphenyl]-5-fluoro-N2-[4-(4-methyl-1-piperazinyl)phenyl]-2,4-pyrimidinediamine] | 0.726
12 | CCNS(=O)(=O)NCc1cccc(Nc2nc(Nc3ccc(N4CCN(C)CC4)c(C)c3)ncc2F)c1 [II-139, N4-[3-((Ethylamino)sulfonylamino)methylphenyl]-5-fluoro-N2-[3-methyl-4-(4-methyl-1-piperazinyl)phenyl]-2,4-pyrimidinediamine] | 4.33
13 | CCNS(=O)(=O)NCc1ccc(Nc2nc(Nc3cc(C)c(OC)c(C)c3)ncc2Cl)c(C)c1 [II-142, 5-Chloro-N2-(3,5-dimethyl-4-methoxyphenyl)-N4-[2-methyl-4-(ethylaminosulfonylamino)methylphenyl]-2,4-pyrimidinediamine] | 0.485
14 | CCNS(=O)(=O)NCc1ccc(Nc2nc(Nc3cc(C)c(OCC)c(C)c3)ncc2Cl)c(C)c1 [II-143, 5-Chloro-N2-(3,5-dimethyl-4-ethoxyphenyl)-N4-[2-methyl-4-(ethylaminosulfonylamino)methylphenyl]-2,4-pyrimidinediamine] | 0.252
15 | CCNS(=O)(=O)NCc1ccc(Nc2nc(Nc3ccc(N4CCN(C)CC4)cc3)ncc2Cl)c(C)c1 [II-144, 5-Chloro-N4-[2-methyl-4-(ethylaminosulfonylamino)methylphenyl]-N2-[4-(4-methyl-1-piperazinyl)phenyl]-2,4-pyrimidinediamine] | 0.549
16 | CCNS(=O)(=O)NCc1ccc(Nc2nc(Nc3ccc(N4CCN(C)CC4)c(C)c3)ncc2Cl)c(C)c1 [II-145, 5-Chloro-N4-[2-methyl-4-(ethylaminosulfonylamino)methylphenyl]-N2-[3-methyl-4-(4-methyl-1-piperazinyl)phenyl]-2,4-pyrimidinediamine] | 3.98
17 | COc1c(C)cc(Nc2ncc(Cl)c(Nc3ccc(CNS(N)(=O)=O)cc3)n2)cc1C [II-146, N4-[4-(Aminosulfonylamino)methylphenyl]-5-chloro-N2-(3,5-dimethyl-4-methoxyphenyl)-2,4-pyrimidinediamine] | 0.225
18 | CCOc1c(C)cc(Nc2ncc(Cl)c(Nc3ccc(CNS(N)(=O)=O)cc3)n2)cc1C [II-147, N4-[4-(Aminosulfonylamino)methylphenyl]-5-chloro-N2-(3,5-Dimethyl-4-ethoxyphenyl)-2,4-pyrimidinediamine] | 0.142
19 | CN1CCN(c2ccc(Nc3ncc(Cl)c(Nc4ccc(CNS(N)(=O)=O)cc4)n3)cc2)CC1 [II-148, N4-[4-(Aminosulfonylamino)methylphenyl]-5-chloro-N2-[4-(4-methyl-1-piperazinyl)phenyl]-2,4-pyrimidinediamine] | 1.32
20 | Cc1cc(Nc2ncc(Cl)c(Nc3ccc(CNS(N)(=O)=O)cc3)n2)ccc1N1CCN(C)CC1 [II-149, N4-[4-(Aminosulfonylamino)methylphenyl]-5-chloro-N2-[3-methyl-4-(4-methyl-1-piperazinyl)phenyl]-2,4-pyrimidinediamine] | 1.04
21 | COc1c(C)cc(Nc2ncc(Cl)c(Nc3ccc(CNS(=O)(=O)C4CC4)cc3C)n2)cc1C [II-150, 5-Chloro-N2-(3,5-dimethyl-4-methoxyphenyl)-N4-[2-methyl-4-(N-cyclopropylsulfonylamino)methylphenyl]-2,4-pyrimidinediamine] | 0.307
22 | CCOc1c(C)cc(Nc2ncc(Cl)c(Nc3ccc(CNS(=O)(=O)C4CC4)cc3C)n2)cc1C [II-151, 5-Chloro-N2-(3,5-dimethyl-4-ethoxyphenyl)-N4-[2-methyl-4-(N-cyclopropylsulfonylamino)methylphenyl]-2,4-pyrimidinediamine] | 0.398
23 | Cc1cc(CNS(=O)(=O)C2CC2)ccc1Nc1nc(Nc2ccc(N3CCN(C)CC3)cc2)ncc1Cl [II-152, 5-Chloro-N4-[2-methyl-4-(N-cyclopropylsulfonylamino)methylphenyl]-N2-[4-(4-methyl-1-piperazinyl)phenyl]-2,4-pyrimidinediamine] | 0.357
24 | Cc1cc(CNS(=O)(=O)C2CC2)ccc1Nc1nc(Nc2ccc(N3CCN(C)CC3)c(C)c2)ncc1Cl [II-153, 5-Chloro-N4-[2-methyl-4-(N-cyclopropylsulfonylamino)methylphenyl]-N2-[3-methyl-4-(4-methyl-1-piperazinyl)phenyl]-2,4-pyrimidinediamine] | 3.33

Source: patent US8304422B2, “Compositions and methods for inhibition of the JAK pathway” (Rigel Pharmaceuticals, Inc., priority 2007, dated 2012)
